Results: US20110015162A1, “15,16-Methylene-17-hydroxy-19-nor-21-carboxylic acid-steroid Y-lactone derivative, use thereof and medicinal products containing the derivative” (Bayer Schering Pharma Aktiengesellschaft, priority 2007, published 2011)

Legend:
[1] = target: T1, mineralocorticoid receptor (Homo sapiens, UniProt P08235); assay: Mineralocorticoid receptor binding test; parameters: made in house; host or cells: Hi5 insect cells (cytosol); conditions: reference substance 3H-aldosterone, cytosol from MR-expressing insect cells (Hi5)
T1 sequence (P08235 1-984): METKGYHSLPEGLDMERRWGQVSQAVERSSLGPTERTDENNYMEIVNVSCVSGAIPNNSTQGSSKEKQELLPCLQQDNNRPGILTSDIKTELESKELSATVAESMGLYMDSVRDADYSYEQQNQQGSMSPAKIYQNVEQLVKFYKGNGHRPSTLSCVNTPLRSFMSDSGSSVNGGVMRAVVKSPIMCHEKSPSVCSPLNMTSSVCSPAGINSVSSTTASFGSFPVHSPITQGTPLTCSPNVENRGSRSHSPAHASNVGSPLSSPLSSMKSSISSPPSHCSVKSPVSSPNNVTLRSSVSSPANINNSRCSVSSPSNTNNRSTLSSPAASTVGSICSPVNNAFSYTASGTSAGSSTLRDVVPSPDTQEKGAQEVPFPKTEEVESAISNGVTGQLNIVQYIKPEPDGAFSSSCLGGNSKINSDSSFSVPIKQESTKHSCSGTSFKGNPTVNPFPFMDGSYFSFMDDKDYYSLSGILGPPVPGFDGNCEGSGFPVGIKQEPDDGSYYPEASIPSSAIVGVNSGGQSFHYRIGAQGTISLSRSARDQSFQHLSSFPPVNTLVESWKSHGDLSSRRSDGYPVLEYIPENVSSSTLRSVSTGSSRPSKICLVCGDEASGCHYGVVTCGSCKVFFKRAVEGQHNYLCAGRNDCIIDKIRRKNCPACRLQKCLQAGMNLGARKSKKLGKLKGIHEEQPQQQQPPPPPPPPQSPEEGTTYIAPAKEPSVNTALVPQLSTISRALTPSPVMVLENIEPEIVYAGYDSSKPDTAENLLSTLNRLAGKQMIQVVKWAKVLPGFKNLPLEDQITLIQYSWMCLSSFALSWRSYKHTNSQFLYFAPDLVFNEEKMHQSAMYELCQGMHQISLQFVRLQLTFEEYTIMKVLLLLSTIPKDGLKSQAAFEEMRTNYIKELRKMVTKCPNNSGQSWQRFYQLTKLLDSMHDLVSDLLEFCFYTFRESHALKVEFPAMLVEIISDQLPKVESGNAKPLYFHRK
Experimental: (§1) Using cytosol from progesterone receptor-expressing insect cells (Hi5), competitive binding to the progesterone receptor was determined from the ability to displace ^3H-progesterone as reference substance from the receptor.
2. Mineralocorticoid Receptor Binding Test:
The test was carried out as in 1, with the following modifications: cytosol from mineralocorticoid receptor-expressing insect cells (Hi5) was used, and the reference substance was ^3H-aldosterone.

[2] = target: T2, progesterone receptor (Homo sapiens, UniProt P06401); assay: Progesterone receptor binding test; conditions: for Progesterone receptor (PR) Competition factor: CF 1 = affinity of progesterone, CF >1 lower affinity, <1 higher affinity; for CF PR/CF MR: ratio of competition factors CF(PR) and CF(MR)
T2 construct: made in house; host or cells: Hi5 insect cells (cytosol)
T2 sequence (P06401 1-933): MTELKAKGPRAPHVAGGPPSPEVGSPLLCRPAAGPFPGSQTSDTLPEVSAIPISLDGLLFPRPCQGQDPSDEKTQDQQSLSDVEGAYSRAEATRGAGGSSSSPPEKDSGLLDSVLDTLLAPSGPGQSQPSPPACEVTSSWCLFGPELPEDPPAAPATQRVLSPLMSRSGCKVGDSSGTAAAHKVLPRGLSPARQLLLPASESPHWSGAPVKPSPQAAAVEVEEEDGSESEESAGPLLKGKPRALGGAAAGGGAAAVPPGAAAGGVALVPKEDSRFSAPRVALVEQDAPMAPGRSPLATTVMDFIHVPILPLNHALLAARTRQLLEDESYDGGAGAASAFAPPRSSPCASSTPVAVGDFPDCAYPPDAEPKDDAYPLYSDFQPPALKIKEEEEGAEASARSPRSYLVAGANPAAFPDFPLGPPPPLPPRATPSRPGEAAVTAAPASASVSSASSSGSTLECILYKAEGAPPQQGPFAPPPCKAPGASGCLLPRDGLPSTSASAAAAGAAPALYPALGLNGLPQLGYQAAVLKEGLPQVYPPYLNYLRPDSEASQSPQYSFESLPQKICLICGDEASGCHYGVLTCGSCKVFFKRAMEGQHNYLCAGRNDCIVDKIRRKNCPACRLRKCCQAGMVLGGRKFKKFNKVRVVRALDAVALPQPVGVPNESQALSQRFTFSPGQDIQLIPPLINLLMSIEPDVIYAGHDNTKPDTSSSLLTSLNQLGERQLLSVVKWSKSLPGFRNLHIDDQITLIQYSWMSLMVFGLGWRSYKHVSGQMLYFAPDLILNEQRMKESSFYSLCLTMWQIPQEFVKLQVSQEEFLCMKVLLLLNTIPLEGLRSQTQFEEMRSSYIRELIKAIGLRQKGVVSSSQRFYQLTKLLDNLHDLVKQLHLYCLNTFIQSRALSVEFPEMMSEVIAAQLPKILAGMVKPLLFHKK
Experimental: 1. Progesterone Receptor Binding Test:
as §1

Compound: C[C@@H]1CC2=CC(=O)CC[C@@H]2[C@H]2CC[C@@]3(C)[C@@H]([C@H]4C[C@H]4[C@@]34C=CC(=O)O4)[C@@H]21 [Example 14A, 17β-Hydroxy-7α-methyl-15α,16α-methylene-19-nor-17α-pregna-4,20(Z)-dien-3-one-21-carboxylic acid γ-lactone]
- Mineralocorticoid receptor (MR) Competition factor [1]: 1.3
- IC50 [2]: 49 nM
- Progesterone receptor (PR) Competition factor [2]: 2.04
- CF PR/CF MR [2]: 1.57

Compound: CC[C@@H]1CC2=CC(=O)CC[C@@H]2[C@H]2CC[C@@]3(C)[C@@H]([C@H]4C[C@H]4[C@@]34C=CC(=O)O4)[C@H]12 [Example 15A, 17β-Hydroxy-7α-ethyl-15α,16α-methylene-19-nor-17α-pregna-4,20(Z)-dien-3-one-21-carboxylic acid γ-lactone]
- Mineralocorticoid receptor (MR) Competition factor [1]: 0.8
- IC50 [2]: 200 nM
- Progesterone receptor (PR) Competition factor [2]: 8.36
- CF PR/CF MR [2]: 10.45

Compound: C=C[C@@H]1CC2=CC(=O)CC[C@@H]2[C@H]2CC[C@@]3(C)[C@@H]([C@H]4C[C@H]4[C@@]34C=CC(=O)O4)[C@@H]21 [Example 16A, 17β-Hydroxy-7α-vinyl-15α,16α-methylene-19-nor-17α-pregna-4;20(Z)-dien-3-one-21-carboxylic acid γ-lactone]
- Mineralocorticoid receptor (MR) Competition factor [1]: 2.0
- IC50 [2]: 85 nM
- Progesterone receptor (PR) Competition factor [2]: 3.76
- CF PR/CF MR [2]: 1.88

Compound: C[C@]12CC[C@H]3[C@H]([C@@H]1[C@H]1C[C@H]1[C@@]21C=CC(=O)O1)[C@H](C1CC1)CC1=CC(=O)CC[C@@H]13 [Example 17A, 17β-Hydroxy-7α-cyclopropyl-15α,16α-methylene-19-nor-17α-pregna-4,20(Z)-dien-3-one-21-carboxylic acid γ-lactone]
- Mineralocorticoid receptor (MR) Competition factor [1]: 2.6
- IC50 [2]: 280 nM
- Progesterone receptor (PR) Competition factor [2]: 12.24
- CF PR/CF MR [2]: 4.71

Compound: C[C@]12CC[C@H]3[C@@H](CCC4=C(Cl)C(=O)CC[C@@H]43)[C@@H]1[C@H]1C[C@H]1[C@@]21C=CC(=O)O1 [Example 18, 4-Chloro-17β-hydroxy-15α,16α-methylene-19-nor-17α-pregna-4,20(Z)-dien-3-one-21-carboxylic acid γ-lactone]
- Mineralocorticoid receptor (MR) Competition factor [1]: 35.0
- IC50 [2]: 400 nM
- Progesterone receptor (PR) Competition factor [2]: 17.24
- CF PR/CF MR [2]: 0.49

Compound: C[C@]12CC[C@H]3[C@@H](CCC4=CC(=O)CC[C@@H]43)[C@@H]1[C@@H]1C[C@@H]1[C@@]21C=CC(=O)O1 [Example 19, 17β-Hydroxy-15β,16β-methylene-19-nor-17α-pregna-4,20(Z)-dien-3-one-21-carboxylic acid γ-lactone]
- Mineralocorticoid receptor (MR) Competition factor [1]: 187.0
- IC50 [2]: 25 nM
- Progesterone receptor (PR) Competition factor [2]: 1.70
- CF PR/CF MR [2]: 0.01

Compound: C[C@]12CC[C@H]3[C@@H](CC4(CC4)C4=CC(=O)CC[C@@H]43)[C@@H]1[C@@H]1C[C@@H]1[C@@]21C=CC(=O)O1 [Example 22, 6,6-(1,2-Ethanediyl)-17β-hydroxy-15β,16β-methylene-19-nor-17α-pregna-4,20(Z)dien-3-one-21-carboxylic acid γ-lactone]
- Mineralocorticoid receptor (MR) Competition factor [1]: 0.8
- IC50 [2]: 30 nM
- Progesterone receptor (PR) Competition factor [2]: 1.04
- CF PR/CF MR [2]: 1.30

Compound: C[C@@H]1CC2=CC(=O)CC[C@@H]2[C@H]2CC[C@@]3(C)[C@@H]([C@@H]4C[C@@H]4[C@@]34C=CC(=O)O4)[C@@H]21 [Example 23A, 17β-Hydroxy-7α-methyl-15β,16β-methylene-19-nor-17α-pregna-4,20(2)-dien-3-one-21-carboxylic acid γ-lactone]
- Mineralocorticoid receptor (MR) Competition factor [1]: 1.9
- IC50 [2]: 120 nM
- Progesterone receptor (PR) Competition factor [2]: 3.79
- CF PR/CF MR [2]: 1.99

Compound: CC[C@@H]1CC2=CC(=O)CC[C@@H]2[C@H]2CC[C@@]3(C)[C@@H]([C@@H]4C[C@@H]4[C@@]34C=CC(=O)O4)[C@H]12 [Example 24A, 7α-Ethyl-17β-hydroxy-15β,16β-methylene-19-nor-17α-pregna-4,20(Z)-dien-3-one-21-carboxylic acid γ-lactone]
- Mineralocorticoid receptor (MR) Competition factor [1]: 1.9
- IC50 [2]: 1300 nM
- Progesterone receptor (PR) Competition factor [2]: 41.55
- CF PR/CF MR [2]: 21.87

Compound: C=C[C@@H]1CC2=CC(=O)CC[C@@H]2[C@H]2CC[C@@]3(C)[C@@H]([C@@H]4C[C@@H]4[C@@]34C=CC(=O)O4)[C@@H]21 [Example 25A, 17β-Hydroxy-15β,16β-methylene-7α-vinyl-19-nor-17α-pregna-4,20(Z)-dien-3-one-21-carboxylic acid γ-lactone]
- Mineralocorticoid receptor (MR) Competition factor [1]: 9.4
- IC50 [2]: 150 nM
- Progesterone receptor (PR) Competition factor [2]: 6.14
- CF PR/CF MR [2]: 0.65

Compound: C[C@]12CC[C@H]3[C@@H](CCC4=C(Cl)C(=O)CC[C@@H]43)[C@@H]1[C@@H]1C[C@@H]1[C@@]21C=CC(=O)O1 [Example 27, 4-Chloro-17β-hydroxy-15β,16β-methylene-19-nor-17α-pregna-4,20(Z)-dien-3-one-21-carboxylic acid γ-lactone]
- Mineralocorticoid receptor (MR) Competition factor [1]: 47.0
- IC50 [2]: 2900 nM
- Progesterone receptor (PR) Competition factor [2]: 101.93
- CF PR/CF MR [2]: 2.17
